In patent publication US8329645B2, “Polymyxin derivatives and uses thereof” (priority 2008, dated 2012):
Several values for one entry are separate records, joined by “and”; a condition that tells them apart may be missing. Equal values may be shown once.

Tests used:
E. coli IH3080 [1] = test: E-test MIC with or without NAB7061 (4 μg/ml), Mueller-Hinton agar; type: cell-based, Escherichia coli
Experimental: (§1) MICs were determined by using E-strips (Biodisk Ltd., Solna, Sweden) according to the manufacturer's instructions.
(§2) The strains originated from ATCC (11 strains), CCUG (11 strains), and NCTC (The National Collection of Type Cultures, Colindale, U.K.; 2 strains). Eight strains (the F-strains) were purchased from Mobidiag Ltd., Helsinki, Finland.

E. coli ATCC25922 [2] = conditions: E. coli ATCC25922
Experimental: as §1, §2

K. pneumoniae ATCC13883 [3] = conditions: K. pneumoniae ATCC13883
Experimental: as §1, §2

E. cloacae ATCC23355 [4] = test: E-test MIC with or without NAB7061 (4 μg/ml), Mueller-Hinton agar; type: cell-based, Enterobacter cloacae
Experimental: as §1, §2

[5] = test system: E. coli (ATCC25922 and IH3080), K. pneumoniae ATCC13883, and E. cloacae ATCC23355; test: E-test sensitization by NAB7061, range over the tested strains; type: cell-based; conditions: four tested strains
Experimental: as §1

E. coli IH3080 (K1:O18) = test: Experimental E. coli peritonitis model in mice (Example 12); type: in vivo
Experimental: A suspension of E. coli IH3080 (K1:O18) in saline (0.9% NaCl) was prepared from an overnight culture on a blood agar plate (Statens Serum Institut, Copenhagen, Denmark). All mice (female NMR1 from Harlan Scandinavia, Allerød, Denmark; weight, 25-30 g) were inoculated intraperitoneally with 0.5 ml of the suspension containing 0.96×10^6 CFU per ml in the lateral lower quadrant of the abdomen. At 1 h, the CFU count was determined from three mice and the remaining mice (four mice per group) were treated with a subcutaneous injection of 0.2 ml of erythromycin solution in saline (corresponding to 5 mg/kg body weight) or NAB7061 solution in saline (corresponding to 5 mg/kg body weight), or both erythromycin and NAB7061 (corresponding to 5 mg/kg body weight of both drugs; given at two separate sites). Control group received two 0.2 ml injections of saline. At 4.5 h postinfection, all mice were anaesthetized with CO2 and sacrificed. Sterile saline (2 ml) was injected intraperitoneally and the abdomen was gently massaged before it was opened and the fluid sampled. Appropriate dilutions of the fluid were plated on blood agar plates, the plates were incubated overnight, and the colonies were counted.

E. coli IH3080 [6] = test: Growth inhibition around wells on LB agar plates; type: cell-based, Escherichia coli; conditions: 10 μg of compound per well
Outline: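 Growth inhibition of encapsulated E. coli IH3080 (K1:O018) was assessed on LB agar plates. A suspension of about 10^8 cells/ml in 0.9% NaCl, made from an overnight LB agar culture, was spread across the plate surface and the excess removed. After drying, 2 mm wells were drilled, with 0.9% NaCl as control. Following 18 h at 37° C., inhibition zone diameters around wells were converted to areas in square mm.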

[7] = test system: Acinetobacter baumannii ATCC 19606; test: Growth inhibition around wells on LB agar plates; type: cell-based; conditions: A. baumannii ATCC 19606
[8] = test system: Pseudomonas aeruginosa ATCC 27853; test: Growth inhibition around wells on LB agar plates; type: cell-based; conditions: Ps. aeruginosa ATCC 27853
Outline: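 Activity against Pseudomonas aeruginosa ATCC 27853 was assessed by agar well diffusion on LB plates. A suspension of about 10^8 cells/ml in 0.9% NaCl was spread over the agar and the excess removed. Once the surface had dried, 2 mm wells were drilled and filled with peptide dissolved in 0.9% NaCl. Plates were incubated 18 h at 37° C, and inhibition zone diameters were converted to areas in square mm.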

E. coli ATCC25922 [9] = test: Growth inhibition around wells on LB agar plates; type: cell-based, Escherichia coli
Experimental: (§3) From an overnight-grown culture of IH3080 on LB agar, a suspension of approx. 10^8 cells/ml was prepared in 0.9% NaCl. Aliquots of this suspension were then pipetted on the agar plates and the plates were gently shaken to spread the suspension evenly on the entire surface of the plate. Thereafter, the unabsorbed part of the suspension was removed by using a Pasteur pipette. After the surface had dried, small wells (diameter, 2 mm) were drilled on the plates (five wells per plate) by using a sterile sharp-edged narrow metal tube, single-use pipette tip, and vacuum suction. An alternative method used a swab to spread the inoculum. Samples (4 μl and 10 μl) of the peptide solution in 0.9% NaCl (at concentrations of 1 μg/ml and 0.1 μg/ml) were then pipetted to the wells and the sample fluids were allowed to absorb. Controls included 0.9% NaCl solution without the compound to be tested. The plates were then incubated for 18 h at 37° C. whereafter the diameters of growth inhibition zones around each well were measured; the diameter of the well itself was not reduced. Finally, the diameters were converted to surface areas of growth inhibition (in square mm).
(§4) The susceptibility of eleven Gram-negative bacterial strains (nine different species) to NAB734 and polymyxin B was compared by using the susceptibility determination method described in Example 2. The strains included those belonging to the species of Serratia marcescens and Proteus mirabilis, both species generally known to be resistant to polymyxin. Furthermore, the susceptibility determination was also performed by using the Gram-positive bacterium, Staphylococcus aureus, also generally known to be polymyxin-resistant. Ten of the strains originated from ATCC (American Type Culture Collection, Manassas, Va., U.S.A.), and one from CCUG (Culture Collection of University of Gothenburg, Sweden). The source of E. coli IH3080 has been described in Example 2. Polymyxin B sulfate was from Sigma-Aldrich (St. Louis, Mo., USA).

K. pneumoniae ATCC13883 [10] = test: Growth inhibition around wells on LB agar plates; type: cell-based, Klebsiella pneumoniae
Experimental: as §3, §4

K. pneumoniae CCUG45421 = test: Growth inhibition around wells on LB agar plates; type: cell-based, Klebsiella pneumoniae
Experimental: as §3, §4

K. oxytoca ATCC13182 = test: Growth inhibition around wells on LB agar plates; type: cell-based, Klebsiella oxytoca
Experimental: as §3, §4

E. cloacae ATCC23355 [11] = test: Growth inhibition around wells on LB agar plates; type: cell-based, Enterobacter cloacae
Experimental: as §3, §4

C. freundii ATCC8090 = test: Growth inhibition around wells on LB agar plates; type: cell-based, Citrobacter freundii
Experimental: as §3, §4

S. marcescens ATCC8100 = test: Growth inhibition around wells on LB agar plates; type: cell-based, Serratia marcescens
Experimental: as §3, §4

P. mirabilis ATCC29906 = test: Growth inhibition around wells on LB agar plates; type: cell-based, Proteus mirabilis
Experimental: as §3, §4

S. aureus ATCC 25923 = test: Growth inhibition around wells on LB agar plates; type: cell-based, Staphylococcus aureus
Experimental: as §3, §4

E. coli IH3080 [12] = test: Sensitization to rifampin: growth inhibition around wells on LB plates containing rifampin; type: cell-based, Escherichia coli; conditions: 4 μg of compound
A. baumannii ATCC 19606 = test: as above; type: cell-based, Acinetobacter baumannii; conditions: 4 μg
[13] = test system: Ps. aeruginosa ATCC 27853; test: as above; type: cell-based, Pseudomonas aeruginosa; conditions: 4 μg

Molecule: CC[C@H]1OC(=O)[C@H](C)[C@@H](O[C@H]2C[C@@](C)(OC)[C@@H](O)[C@H](C)O2)[C@H](C)[C@@H](O[C@@H]2O[C@H](C)C[C@H](N(C)C)[C@H]2O)[C@](C)(O)C[C@@H](C)C(=O)[C@H](C)[C@@H](O)[C@]1(C)O [Erythromycin]
- Sensitization factor to antibiotic (MIC without / with 4 μg/ml of NAB 7061) (E. coli IH3080 [1]): 32-42
- Sensitization factor to antibiotic (MIC without / with 4 μg/ml of NAB 7061) (E. coli ATCC25922 [2]): 32-48
- Sensitization factor to antibiotic (MIC without / with 4 μg/ml of NAB 7061) (K. pneumoniae ATCC13883 [3]): 24-48
- Sensitization factor to antibiotic (MIC without / with 4 μg/ml of NAB 7061) (E. cloacae ATCC23355 [4]): 21-43
- Sensitization factor to antibiotic at 4 μg/ml of NAB7061, range over the tested strains [5]: 21-48
- CFU counts in peritoneal fluid (E. coli IH3080 (K1:O18); 4.5 h postinfection ([…] after treatment), 5 mg/kg subcutaneous): 8.9 (±6.4)×10^6 per ml
- factor by which the bacterial count increased (E. coli IH3080 (K1:O18); from 1 h to 4.5 h postinfection): 12

Molecule: OA-Thr-DSer-cy[Dab-Dab-DPhe-Thr-Dab-Dab-Thr-] [NAB 734]
- growth inhibition around a well (E. coli IH3080 [6]): 177 square millimeters
- growth inhibition around a well ([7]; 4 μg): 38 square millimeters and 57 square millimeters
- growth inhibition around a well ([7]; 10 μg): 95 square millimeters and 79 square millimeters
- growth inhibition around a well ([8]; 4 μg): 13 square millimeters
- growth inhibition around a well ([8]; 10 μg): 50 square millimeters
- growth inhibition around a well (E. coli ATCC25922 [9]; 4 μg): 133 square millimeters
- growth inhibition around a well (E. coli ATCC25922 [9]; 10 μg): 177 square millimeters
- growth inhibition around a well (K. pneumoniae ATCC13883 [10]; 4 μg): 64 square millimeters
- growth inhibition around a well (K. pneumoniae ATCC13883 [10]; 10 μg): 113 square millimeters
- growth inhibition around a well (K. pneumoniae CCUG45421; 4 μg): 64 square millimeters
- growth inhibition around a well (K. pneumoniae CCUG45421; 10 μg): 104 square millimeters
- growth inhibition around a well (K. oxytoca ATCC13182; 4 μg): 95 square millimeters
- growth inhibition around a well (K. oxytoca ATCC13182; 10 μg): 143 square millimeters
- growth inhibition around a well (E. cloacae ATCC23355 [11]; 4 μg): 133 square millimeters
- growth inhibition around a well (E. cloacae ATCC23355 [11]; 10 μg): 177 square millimeters
- growth inhibition around a well (C. freundii ATCC8090; 4 μg): 133 square millimeters
- growth inhibition around a well (C. freundii ATCC8090; 10 μg): 177 square millimeters
- growth inhibition around a well (S. marcescens ATCC8100; 4 μg): 0 square millimeters
- growth inhibition around a well (S. marcescens ATCC8100; 10 μg): 0 square millimeters
- growth inhibition around a well (P. mirabilis ATCC29906; 4 μg): 0 square millimeters
- growth inhibition around a well (P. mirabilis ATCC29906; 10 μg): 0 square millimeters
- growth inhibition around a well (S. aureus ATCC 25923; 4 μg): 0 square millimeters
- growth inhibition around a well (S. aureus ATCC 25923; 10 μg): 0 square millimeters
- growth inhibition around a well in the presence of rifampin (E. coli IH3080 [12]; rifampin 0 μg/ml): 113 square millimeters
- growth inhibition around a well in the presence of rifampin (E. coli IH3080 [12]; rifampin 0.1 μg/ml): 154 square millimeters
- growth inhibition around a well in the presence of rifampin (E. coli IH3080 [12]; rifampin 1.0 μg/ml): 201 square millimeters
- growth inhibition around a well in the presence of rifampin (A. baumannii ATCC 19606; rifampin 0 μg/ml): 38 square millimeters
- growth inhibition around a well in the presence of rifampin (A. baumannii ATCC 19606; rifampin 0.1 μg/ml): 201 square millimeters
- growth inhibition around a well in the presence of rifampin (A. baumannii ATCC 19606; rifampin 0.3 μg/ml): 283 square millimeters
- growth inhibition around a well in the presence of rifampin ([13]; rifampin 0 μg/ml): 13 square millimeters
- growth inhibition around a well in the presence of rifampin ([13]; rifampin 0.3 μg/ml): 20 square millimeters
